Test results taken from US6481154B1, “Method of large-scale propagation of trees of genus Swietenia” (Sumitomo Forestry Co., Ltd., priority 2000, dated 2002).

Legend:
[1] = system: single shoots of Swietenia macrophylla; experiment: Rooting condition (1): modified B5 medium for 3 months; assay type: cell-based
Experimental: (§1) A large number of shoots obtained in (4) were cut to single shoots which were cultured in the following procedures:
(1) The single shoots were cultured on a modified B5 medium containing 0 to 10.0 mg/l of IBA for 3 months, while transplanting the shoots to a fresh medium of the same composition every month.
(§2) All the above (1)-(4) cultures were conducted under conditions wherein a temperature was 26±2° C., a humidity was 60 to 90% and a light intensity was 3,000 to 9,000 Lux. Further, all the modified media in the above (1)-(4) contained 2.8 g/l of gelright.

[2] = system: single shoots of Swietenia macrophylla; experiment: Rooting conditions (2): modified MS medium for 3 months; assay type: cell-based
Experimental: as §1
(2) The single shoots were cultured on a modified MS medium containing 0 to 10.0 mg/l of IBA for 3 months, while transplanting the shoots to a fresh medium of the same composition every month.
as §2

## O=C(O)CCCc1c[nH]c2ccccc12 [IBA, 3-indole butyric acid]
[1]; IBA 0.1 mg/l
  Rooting rate (%) For first one month: 0.0%
  Rooting rate (%) For second one month: 0.0%
  Rooting rate (%) For third one month: 0.0%
  Withering rate (%) For first one month: 84.6%
  Withering rate (%) For second one month: 100.0%
  Withering rate (%) For third one month: 100.0%
[1]; IBA 1.0 mg/l
  Rooting rate (%) For first one month: 0.0%
  Rooting rate (%) For second one month: 3.7%
  Rooting rate (%) For third one month: 3.7%
  Withering rate (%) For first one month: 14.8%
  Withering rate (%) For second one month: 55.6%
  Withering rate (%) For third one month: 96.3%
[1]; IBA 2.0 mg/l
  Rooting rate (%) For first one month: 0.0%
  Rooting rate (%) For second one month: 6.7%
  Rooting rate (%) For third one month: 6.7%
  Withering rate (%) For first one month: 13.3%
  Withering rate (%) For second one month: 40.0%
  Withering rate (%) For third one month: 73.3%
[1]; IBA 2.5 mg/l
  Rooting rate (%) For first one month: 0.0%
  Rooting rate (%) For second one month: 18.5%
  Rooting rate (%) For third one month: 18.5%
  Withering rate (%) For first one month: 11.1%
  Withering rate (%) For second one month: 40.7%
  Withering rate (%) For third one month: 66.7%
[1]; IBA 3.0 mg/l
  Rooting rate (%) For first one month: 0.0%
  Rooting rate (%) For second one month: 0.0%
  Rooting rate (%) For third one month: 0.0%
  Withering rate (%) For first one month: 26.9%
  Withering rate (%) For second one month: 57.7%
  Withering rate (%) For third one month: 73.1%
[1]; IBA 4.0 mg/l
  Rooting rate (%) For first one month: 0.0%
  Rooting rate (%) For second one month: 4.0%
  Rooting rate (%) For third one month: 4.0%
  Withering rate (%) For first one month: 40.0%
  Withering rate (%) For second one month: 72.0%
  Withering rate (%) For third one month: 100.0%
[1]; IBA 5.0 mg/l
  Rooting rate (%) For first one month: 0.0%
  Rooting rate (%) For second one month: 0.0%
  Rooting rate (%) For third one month: 0.0%
  Withering rate (%) For first one month: 53.8%
  Withering rate (%) For second one month: 84.6%
  Withering rate (%) For third one month: 100.0%
[1]; IBA 10.0 mg/l
  Rooting rate (%) For first one month: 0.0%
  Rooting rate (%) For second one month: 0.0%
  Rooting rate (%) For third one month: 0.0%
  Withering rate (%) For first one month: 80.8%
  Withering rate (%) For second one month: 96.2%
  Withering rate (%) For third one month: 100.0%
[2]; IBA 0.1 mg/l
  Rooting rate (%) For first one month: 0.0%
  Rooting rate (%) For second one month: 0.0%
  Rooting rate (%) For third one month: 0.0%
  Withering rate (%) For first one month: 0.0%
  Withering rate (%) For second one month: 69.2%
  Withering rate (%) For third one month: 84.6%
[2]; IBA 1.0 mg/l
  Rooting rate (%) For first one month: 0.0%
  Rooting rate (%) For second one month: 3.8%
  Rooting rate (%) For third one month: 3.8%
  Withering rate (%) For first one month: 0.0%
  Withering rate (%) For second one month: 46.2%
  Withering rate (%) For third one month: 73.1%
[2]; IBA 2.0 mg/l
  Rooting rate (%) For first one month: 0.0%
  Rooting rate (%) For second one month: 3.8%
  Rooting rate (%) For third one month: 11.5%
  Withering rate (%) For first one month: 0.0%
  Withering rate (%) For second one month: 30.8%
  Withering rate (%) For third one month: 76.9%
[2]; IBA 2.5 mg/l
  Rooting rate (%) For first one month: 0.0%
  Rooting rate (%) For second one month: 13.3%
  Rooting rate (%) For third one month: 16.7%
  Withering rate (%) For first one month: 0.0%
  Withering rate (%) For second one month: 26.7%
  Withering rate (%) For third one month: 66.7%
[2]; IBA 3.0 mg/l
  Rooting rate (%) For first one month: 0.0%
